“Also recorded” adds a separate entry of the source. Where two headings read alike, the source gives them in different places.

One data set relates to bacterial urease. Particulars: cited from earlier work.
Data set [1] relates to urease producing bacteria. Particulars: cited from earlier work.
Another data set relates to Proteus species. The data set is described as follows: static study in synthetic urine: inhibition of alkalinization by Proteus species. In kind it is cell-based. Particulars: methenamine 0.9 mg/ml. How it is done: (§1) Static studies were conducted to illustrate the synergistic effect achieved in accordance with the present invention through the combined employment of a source of methenamine, i.e., methenamine itself and a source of hydroxamate groups, i.e., acetohydroxamic acid. In order to achieve reproducibility of results with large quantities or urine required for these studies a synthetic urine was formulated based on the proportion of solutes found in the urine from normal human subjects. The composition of such urine was as follows: Brain heart infusion (BHI) broth in a final concentration of 5% was added to support bacterial growth. The pH of the synthetic urine prior to addition of the BHI broth was 5.7 - 5.8. […] In these tests the methenamine was utilized in a final concentration of 0.9 milligrams per milliliter. […] Dally and […], 1969, Analytical BioChem 28:13-21. […] These concentrations which were selected in the static studies were concentrations which would be achievable in the urine of patients with normal renal function. […] At each pH level a set of four tubes was obtained, with these tubes being as follows: 1. Urine alone (control); 2. Urine plus methenamine; 3. Urine plus acetohydroxamic acid; and 4. Urine plus acetohyroxamic acid plus methenamine. […] At varying time intervals aliquots were removed for pH determination and bacterial enumeration by serial tenfold dilution.

The subject of data set [2] is Proteus rettgeri. In words: static study in synthetic urine: viable bacteria, Proteus rettgeri (FIG. 2). The class given is cell-based. Particulars: methenamine 0.9 mg/ml. How it is done: as §1
For data set [3], the system named is Proteus rettgeri. In words: dynamic study resembling a Proteus infected human bladder (FIG. 3). In kind it is cell-based. Particulars: methenamine 0.9 mg/ml. How it is done:
Dynamic studies were conducted to further illustrate the synergistic effect associated with the combined presence of a source of methenamine, i.e., methenamine itself and a source of hyroxamate groups, i.e., acetohydroxamic acid in the urine. […] Utilizing a multicassetts roller pump, urine of a pH of 5.85 was pumped at 40 milliliters per hour from three reservoir flasks into three reaction chambers. […] An aqueous solution of 18 milligrams per milliliter of methenamine at a pH of 7.5 was pumped into reaction chambers 1 and 3 at a rate of two milliliters per hour yielding a final concentration of methenamine of 0.9 milligrams per milliliter. […] The reaction chambers contained gently rotating magnetic stirrers and were kept in a warm bath at 37° C. […] At 4 - 6 hour intervals the volume of urine in each reaction chamber was recorded, the pH of each reaction chamber was determined and serial dilutions were carried out for bacterial enumeration.

The subject of data set [4] is Proteus. In words: preliminary investigations in the dynamic system. Particulars: methenamine 0.9 mg/ml. The class given is cell-based. The source says:
Utilizing a multicassetts roller pump, urine of a pH of 5.85 was pumped at 40 milliliters per hour from three reservoir flasks into three reaction chambers. […] An aqueous solution of 18 milligrams per milliliter of methenamine at a pH of 7.5 was pumped into reaction chambers 1 and 3 at a rate of two milliliters per hour yielding a final concentration of methenamine of 0.9 milligrams per milliliter. […] The reaction chambers contained gently rotating magnetic stirrers and were kept in a warm bath at 37° C.

Data set [5] concerns Proteus mirabilis. In words: static-dynamic system, bacteriostasis against Proteus mirabilis (Experiments A-J). In kind it is cell-based. How it is done:
In this example in vitro investigations were carried out using a static-dynamic system delineating (1) bacteriostatic dose-response relation for methenamine against Proteus, and (2) a synergistic bacteriostatic dose-response relation for methenamine and acetohydroxamic acid against Proteus. […] The tubes were placed in a bacteriological incubator at 37° C. […] Incubation of the tubes at 37° and sequential dilutions were made a 6 hour intervals for 24 hours. The variables for each of eight experiments are detailed in Table 2. Bacterial colony forming units (cfu) and urine pH were determined at the beginning and at the completion of each six hour incubation. The cfu units present after six hours of incubation are graphed in FIGS. 4-15. […] When bacteriostatis was absent, the number of cfu after six hours of incubation was equal to or greater than the number of cfu at the beginning of incubation. A strain of Proteus mirabilis isolated from the urine of patients with urinary tract infections was used in most experiments. Overnight growth in brain heart infusion (BHI) broth regularly produced 10^9 cfu/ml. The overnight culture was centrifuged at 3000 rpm for 20 minutes. The supernatant was discharged, and the bacterial pellet was resuspended in an equal volume of synthetic urine. The bacteria were resuspended in synthetic urine to prevent differences in pH as the bacteria were inoculated into tubes of synthetic urine. […] The results are illustrated in FIGS. 4-15 which relates respectively to Experiment A-L of Table 2. Each of FIGS. 4-15 represents colony forming units (cfu) present at the completion of six hour incubations. 100-fold dilutions were made prior to initiating subsequent six hour incubations. Each figure also includes a line representative of theoretically perfect bacteriostasis.

Data set [6] has as its system Proteus. In words: static-dynamic system, bacteriostasis against Proteus, statements over all experiments. In kind it is cell-based, Proteus mirabilis, Proteus rettgeri, Proteus morgani. Particulars: methenamine 0.1 mg/ml, acidic urine, 10^4 - 10^7 per ml. How it is done:
In this example in vitro investigations were carried out using a static-dynamic system delineating (1) bacteriostatic dose-response relation for methenamine against Proteus, and (2) a synergistic bacteriostatic dose-response relation for methenamine and acetohydroxamic acid against Proteus. […] The tubes were placed in a bacteriological incubator at 37° C. […] Incubation of the tubes at 37° and sequential dilutions were made a 6 hour intervals for 24 hours. The variables for each of eight experiments are detailed in Table 2. Bacterial colony forming units (cfu) and urine pH were determined at the beginning and at the completion of each six hour incubation. The cfu units present after six hours of incubation are graphed in FIGS. 4-15. […] When bacteriostatis was absent, the number of cfu after six hours of incubation was equal to or greater than the number of cfu at the beginning of incubation. A strain of Proteus mirabilis isolated from the urine of patients with urinary tract infections was used in most experiments. Overnight growth in brain heart infusion (BHI) broth regularly produced 10^9 cfu/ml. The overnight culture was centrifuged at 3000 rpm for 20 minutes. The supernatant was discharged, and the bacterial pellet was resuspended in an equal volume of synthetic urine. […]

Data set [7] has as its system Proteus mirabilis. The data set is described as follows: dynamic model of the urinary tract (FIGS. 16, 17). The class given is cell-based. How it is done:
This example was carried out using a dynamic model as described in connection with Example 2. […] Proteus species, isolated from the urine of patients with known urinary infection, were maintained in the laboratory by monthly transfer on agar […]. These organisms grew to about 10^9 colony forming units (cfu) per ml after overnight growth at 37° C in brain heart infusion broth (BHI). […] The pH of this synthetic urine was 5.85. […] In this dynamic system urine with or without acetohydroxamic acid was pumped at 48 ml/hr from reservoirs via an auto-analyzer pump into reaction chambers which were incubated in a shaking water bath at 37° C. […] Every six hours the reaction chambers were emptied except for a 5 ml residual, and the sequence was repeated. In these experiments the pH, ammonia concentration and cfu per ml urine were determined for each reaction chamber at the end of each six hour period.

The conditions of data set [8]: cited from earlier work.

As to `O=CNO` [formohydroxamic acid], the urease inhibiting effect result in the data set with bacterial urease was “appear to possess the greatest urease inhibiting effect”.
Take `CC(C)C(=O)NO` [isobutyhydroxamic acid]: in the data set on bacterial urease, the urease inhibiting effect result is “appear to possess the greatest urease inhibiting effect”.
On to `C1N2CN3CN1CN(C2)C3` [methenamine mandelate], for which, in data set [1] (urinary infections produced by urease producing bacteria), the “effect on overcoming the alkalinization of the urine” value is on record as “no real effect on overcoming the alkalinization of the urine”.
With `C1N2CN3CN1CN(C2)C3` [methenamine, hexamethenamine tetramine], the effect on alkalinization result in the data set with Proteus species (between pH 5.3 and 6.5) is given as “alkalinization was inhibited in proportion to the initial urine acidity”; in the data set with Proteus species (initial pH less than 5.3) it was “only a slight upward drift was observed”; in the data set on Proteus species (pH greater than 6.5), “did not alter progressive alkalinization”. Also, in the data set on Proteus rettgeri [2], the “anti-bacterial effect, dependence on initial pH” value was “proportional to the initial pH”. Also, the “colony count by the end of the second time period and throughout” value in the data set with Proteus rettgeri [3] is “greater than 10^7 per milliliter”. In addition, the “number of bacteria, first six hours” value in the data set with Proteus rettgeri [3] was “fell slightly during the first six hours”. For the same compound, the “pH at the end of each four to eight hour period” value in the data set on Proteus rettgeri [3] is given as “exceeded 8.5”. Further, in the data set with Proteus [4], the “growth of Proteus and alkalinization of urine versus synthetic urine alone” value was “affected growth of Proteus and alkalinization of urine only slightly”. Also, the “bacteriostatic effect in alkaline urine versus acidic urine” value with Proteus mirabilis [5] (alkaline urine (FIGS. 12 and 13; experiments I, J)) is given as “much less bacteriostatic in alkaline urine”. For the same compound, the bacteriostatic activity entry is “some bacteriostatic activity; also recorded: mild bacteriostatic effect” in the data set with Proteus mirabilis [5] (methenamine 0.05 mg/ml, pH 5.9, 10^4 /ml and 10^5 /ml (Experiments A, B)); “little or no bacteriostatic activity” with Proteus mirabilis [5] (methenamine 0.05 mg/ml, ≥ 10^6 Proteus/ml (FIGS. 4-7)). Also, the bacteriostasis result in the data set with Proteus mirabilis [5] (methenamine 0.05 mg/ml, ≥10^6 /ml Proteus (Experiments C through H)) is “no bacteriostasis”; with Proteus mirabilis [5] (methenamine 0.2 mg/ml, acidic urine (Experiments E and F)) it was “bacteriostasis”; with Proteus [6], “bacteriostasis”. Moreover, in the data set with Proteus mirabilis [5] (methenamine 0.2 mg/ml (FIGS. 8, 9)), the “bacteriostatic effect compared with methenamine 0.1 mg/ml” value is given as “consistently exerted a greater bacteriostatic effect than did methenamine 0.1 mg/ml”. The “effect on pH” value with Proteus mirabilis [7] (lower concentrations of methenamine) was “the pH rapidly became alkaline and remained so throughout”; in the data set with Proteus mirabilis [7] (methenamine alone, 0.5 mg/ml), “initial tendency for the pH to neutralize in the presence of methenamine alone was overcome by the end of 18-24 hours”. For the same compound, in the data set with Proteus mirabilis [7] (methenamine alone 0.5 mg/ml (FIG. 16)), the bacterial growth result is “slightly inhibited bacterial growth”. In addition, the release of formaldehyde entry in [8] (pH 5.0) was “excellent release of formaldehyde”; in [8] (pH 5.5), “good release of formaldehyde”; in [8] (pH 6.0), “generally adequate for the treatment of most urinary tract infections”. The “conversion and release of formaldehyde” value in [8] (pH of the urine 6.5) was “insufficient conversion and release of formaldehyde”. For the same compound, the “effectiveness at alkaline pH” value in data set [1] (methenamine alone, typical anti-bacterial dosage, alkaline pH) is “not effective at an alkaline pH”. Also, the “anti-bacterial effect of the methenamine” value in data set [1] (pH of the urine reaches 6.5) was “totally diminished”.
For the compound `CCC(=O)NO` [propionohydroxamic acid], the urease inhibiting effect entry in the data set on bacterial urease was “appear to possess the greatest urease inhibiting effect”.

The values are drawn from patent US4024256A, “Method and composition for treating urinary tract infections” (priority 1975, dated 1977).
